# Experimental data reported in patent US20080044491A1, “METAL-CONTAINING FORMULATIONS AND METHODS OF USE” (priority 2006, published 2008).
# Several values for one entry are separate records, joined by “and”; a condition that tells them apart may be missing. Equal entries are not always repeated.
# Experiments:
# Ps. aeruginosa = assay: Minimal bactericidal concentration (MBC) assay; format: cell-based, Pseudomonas aeruginosa; details: Ps. aeruginosa 27317 (ATCC type strain)
# Method: (§1) Minimal bactericidal concentration (MBC) assay—Overnight-grown MIC plates, prepared as described in Example 16, were evaluated to determine the MIC. Culture was then sampled from wells at and near the MIC using sterile inoculating loops, and transferred to fresh MHA plates to determine if viable bacteria remained. […] The MBC was determined as the well in the MIC plate which contained the lowest concentration of silver yielding no bacterial growth on the MHA plate.
# Pseudomonas aeruginosa = assay: MIC assay (microdilution); format: cell-based
# [1] = tested on: Staphylococcus epidermidis; assay: MIC assay (microdilution); format: cell-based
# K. pneumoniae = assay: Minimal bactericidal concentration (MBC) assay; format: cell-based, Klebsiella pneumoniae; details: K. pneumoniae NP403 (listed twice)
# Method: as §1
# Staph epidermidis = assay: Minimal bactericidal concentration (MBC) assay; format: cell-based, Staphylococcus epidermidis; details: Staph epidermidis 12228 (ATCC type strain)
# Method: as §1
# [2] = tested on: Mycobacterium tuberculosis H37Ra (ATCC 25177); format: cell-based
# Escherichia coli = assay: MIC assay (microdilution); format: cell-based
# Ser. marcescens = assay: Minimal bactericidal concentration (MBC) assay; format: cell-based, Serratia marcescens
# Method: as §1
# Staph. aureus = assay: Minimal bactericidal concentration (MBC) assay; format: cell-based, Staphylococcus aureus
# Method: as §1
# Klebsiella pneumoniae = assay: MIC assay (microdilution); format: cell-based; details: K. pneumoniae NP403 (listed twice)
# Staphylococcus aureus = assay: MIC assay (microdilution); format: cell-based
# Streptococcus pyogenes = assay: MIC assay (microdilution); format: cell-based; details: lactate solutions, nanocrystalline silver = range for 12 samples
# Streptococcus pneumoniae = assay: MIC assay (microdilution); format: cell-based; details: lactate solutions, nanocrystalline silver = range for 12 samples
# Shigella flexneri = assay: MIC assay (microdilution); format: cell-based; details: Shigella flexneri ATCC 12022
# Serratia marcescens = assay: MIC assay (microdilution); format: cell-based
# E. coli = assay: Minimal bactericidal concentration (MBC) assay; format: cell-based, Escherichia coli
# Method: as §1
# [3] = E. coli 8739 (ATCC type strain)
# [4] = E. coli 43745 (ATCC type strain)
# [5] = Ser. marcescens NP402 (listed twice)
# [6] = Ser. marcescens NP408 (listed twice)
# [7] = Staph. aureus 6538 (ATCC type strain)
# [8] = Staph. aureus 700699 (ATCC type strain)
compound,measurement,setting,value
"O=[N+]([O-])[O-].[Ag+] [AgNO3, silver nitrate]",MBC,Ps. aeruginosa,3 parts silver per million
same,MIC,"Pseudomonas aeruginosa; P. aerug (ATCC), lactate solutions, nanocrystalline silver = range for 12 samples",3 µg/mL
same,MIC,"Pseudomonas aeruginosa; P. aerug. (clin.), lactate solutions, nanocrystalline silver = range for 12 samples",3 µg/mL
same,MIC,"Pseudomonas aeruginosa; P. aeruginosa isolate NP212, formulation type Lactate",2 ppm
same,MIC,"Pseudomonas aeruginosa; P. aeruginosa isolate NP212, formulation type Water/Lecithin",3 ppm
same,MIC,"Pseudomonas aeruginosa; P. aeruginosa isolate NP212, formulation type Water/PVA",3 ppm
same,MIC,Pseudomonas aeruginosa; Ps. aeruginosa 9027 (ATCC type strain),1 parts silver per million
same,MIC,Pseudomonas aeruginosa; Ps. aeruginosa 27317 (ATCC type strain),2 parts silver per million
same,MIC,"[1]; S. epiderm (ATCC), lactate solutions, nanocrystalline silver = range for 12 samples",3 µg/mL
same,MIC,[1]; Staph epidermidis 12228 (ATCC type strain),3 parts silver per million
same,MBC,K. pneumoniae,6 parts silver per million and 3 parts silver per million
same,MBC,Staph epidermidis,3 parts silver per million
same,minimum inhibitory concentration (MIC),[2],2.5 μg/ml silver
same,MIC,Escherichia coli; [3],0.4 parts silver per million
same,MIC,Escherichia coli; [4],1 parts silver per million
same,MIC,"Escherichia coli; E. coli (ATCC), lactate solutions, nanocrystalline silver = range for 12 samples",3 µg/mL
same,MBC,Ser. marcescens; [5],6 parts silver per million
same,MBC,Ser. marcescens; [6],6 parts silver per million and 11 parts silver per million
same,MBC,Staph. aureus; [7],6 parts silver per million
same,MBC,Staph. aureus; [8],6 parts silver per million
same,MIC,Klebsiella pneumoniae,6 parts silver per million
same,MIC,"Staphylococcus aureus; S. aureus (ATCC), lactate solutions, nanocrystalline silver = range for 12 samples",11 µg/mL
same,MIC,"Staphylococcus aureus; S. aureus (clin.), lactate solutions, nanocrystalline silver = range for 12 samples",5 µg/mL
same,MIC,Staphylococcus aureus; [7],6 parts silver per million
same,MIC,Staphylococcus aureus; [8],3 parts silver per million
same,MIC,Streptococcus pyogenes; S. pyog (clin. 303),3 µg/mL
same,MIC,Streptococcus pyogenes; S. pyog (clin. 304),5 µg/mL
same,MIC,Streptococcus pneumoniae; S. pneumo (clin 314),11 µg/mL
same,MIC,Streptococcus pneumoniae; S. pneumo (clin 315),21 µg/mL
same,MIC,Shigella flexneri; formulation type Lactate,2 ppm
same,MIC,Shigella flexneri; formulation type Water/Lecithin,2 ppm
same,MIC,Shigella flexneri; formulation type Water/PVA,1 ppm
same,MIC,Serratia marcescens; [5],6 parts silver per million
same,MIC,Serratia marcescens; [6],6 parts silver per million and 11 parts silver per million
same,MBC,E. coli; [3],0.4 parts silver per million
same,MBC,E. coli; [4],0.4 parts silver per million
